{"source": "paper PMC9369419", "about": "(International Journal of Molecular Sciences, 2022)", "key": {"[1]": {"biological_target": "T1, GluK1 (Rattus norvegicus, UniProt P22756)", "T1 construct": "made in house; host or cells: Sf9 insect cells (membranes)", "T1 sequence (P22756 31-949)": "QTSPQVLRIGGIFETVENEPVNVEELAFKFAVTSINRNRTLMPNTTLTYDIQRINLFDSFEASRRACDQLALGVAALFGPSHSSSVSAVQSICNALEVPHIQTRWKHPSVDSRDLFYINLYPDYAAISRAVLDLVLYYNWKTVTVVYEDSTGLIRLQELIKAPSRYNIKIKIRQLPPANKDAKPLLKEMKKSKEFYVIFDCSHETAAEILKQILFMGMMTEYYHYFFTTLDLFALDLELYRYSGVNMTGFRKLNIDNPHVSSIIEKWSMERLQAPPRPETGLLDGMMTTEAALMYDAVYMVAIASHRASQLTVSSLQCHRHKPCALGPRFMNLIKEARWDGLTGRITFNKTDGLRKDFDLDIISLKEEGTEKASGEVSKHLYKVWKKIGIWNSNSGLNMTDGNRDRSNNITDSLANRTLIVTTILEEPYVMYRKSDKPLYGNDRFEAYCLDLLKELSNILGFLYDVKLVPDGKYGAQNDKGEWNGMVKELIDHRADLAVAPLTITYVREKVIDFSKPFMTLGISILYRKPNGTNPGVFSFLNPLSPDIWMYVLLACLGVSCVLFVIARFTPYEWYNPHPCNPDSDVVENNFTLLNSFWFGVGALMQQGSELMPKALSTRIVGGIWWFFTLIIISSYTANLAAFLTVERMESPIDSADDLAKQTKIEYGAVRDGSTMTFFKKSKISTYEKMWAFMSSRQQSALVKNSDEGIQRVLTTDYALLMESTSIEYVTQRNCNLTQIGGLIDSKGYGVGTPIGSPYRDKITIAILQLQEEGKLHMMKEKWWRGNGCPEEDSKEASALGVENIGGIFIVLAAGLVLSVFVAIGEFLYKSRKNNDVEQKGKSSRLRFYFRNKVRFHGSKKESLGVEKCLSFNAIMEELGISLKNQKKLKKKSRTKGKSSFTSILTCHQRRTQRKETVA", "assay": "Radioligand binding at recombinant homomeric GluK1 in Sf9 membranes", "details": "recombinant rat homomeric receptor, [3H]-(S)-NF608, mean ± SEM", "protocol": "(§1) Ligand binding affinities at recombinant rat homomeric GluA2, GluK1−3, and GluK5 were determined as previously detailed. […] The filters were dried at 70 °C for 1 h, and 50 μL/well Microscint 20 (PerkinElmer, Waltham, MA, USA) was added. Radioactivity was detected with a TopCounter (PerkinElmer, Waltham, MA, USA). GluA2 and GluK5 assays were filtered on GF/C type filters using Millipore 12-well filtration manifolds (Merck Life Science, Søborg, Denmark) and washed twice with ice-cold assay buffer. Filters were placed in pony vials (PerkinElmer, Waltham, MA, USA), 3 mL of Ultima Gold scintillation fluid (PerkinElmer, Waltham, MA, USA) was added, and DPM (disintegrations per minute) were determined using a TriCarb 2900 scintillation counter (PerkinElmer, Waltham, MA, USA).\n(§2) All competition curves (n ≥ 3 per ligand) were determined in triplicate. Data were analyzed using GraphPad Prism 6 (GraphPad Software, San Diego, CA, USA) to determine ligand affinity (Ki) and Hill coefficient (nH) using the one-site Ki and four-parameter logistics equations, respectively."}, "[2]": {"biological_target": "T2, GluK2 (Rattus norvegicus, UniProt P42260)", "T2 construct": "made in house; host or cells: Sf9 insect cells (membranes)", "T2 sequence (P42260 32-908)": "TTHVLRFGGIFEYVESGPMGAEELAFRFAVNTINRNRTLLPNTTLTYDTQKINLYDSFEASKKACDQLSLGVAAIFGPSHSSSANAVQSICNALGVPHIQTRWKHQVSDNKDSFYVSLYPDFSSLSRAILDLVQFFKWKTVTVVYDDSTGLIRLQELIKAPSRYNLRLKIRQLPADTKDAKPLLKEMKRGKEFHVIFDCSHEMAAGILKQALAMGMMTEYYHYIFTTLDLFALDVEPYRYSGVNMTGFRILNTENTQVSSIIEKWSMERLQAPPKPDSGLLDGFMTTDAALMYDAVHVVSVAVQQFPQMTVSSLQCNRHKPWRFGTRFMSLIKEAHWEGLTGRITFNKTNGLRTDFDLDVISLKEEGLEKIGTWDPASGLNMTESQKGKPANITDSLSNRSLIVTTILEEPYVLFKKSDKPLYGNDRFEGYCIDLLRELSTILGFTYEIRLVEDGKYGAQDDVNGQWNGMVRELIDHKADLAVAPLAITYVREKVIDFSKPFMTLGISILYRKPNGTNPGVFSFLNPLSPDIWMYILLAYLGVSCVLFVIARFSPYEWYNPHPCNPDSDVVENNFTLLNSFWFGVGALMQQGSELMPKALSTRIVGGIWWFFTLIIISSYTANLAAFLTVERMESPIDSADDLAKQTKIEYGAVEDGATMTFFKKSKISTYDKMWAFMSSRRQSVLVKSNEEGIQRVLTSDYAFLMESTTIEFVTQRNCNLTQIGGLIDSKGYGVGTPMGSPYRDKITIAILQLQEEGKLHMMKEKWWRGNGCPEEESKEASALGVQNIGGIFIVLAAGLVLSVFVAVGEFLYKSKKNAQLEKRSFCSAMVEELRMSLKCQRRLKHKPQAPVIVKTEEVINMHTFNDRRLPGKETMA", "assay": "Radioligand binding at recombinant homomeric GluK2 in Sf9 membranes", "details": "recombinant rat homomeric receptor, [3H]-kainic acid, mean ± SEM", "protocol": "as §1, §2"}, "[3]": {"biological_target": "T3, GluK3a (Rattus norvegicus, UniProt P42264)", "T3 construct": "expressed in transfected cells", "T3 sequence (P42264 32-919)": "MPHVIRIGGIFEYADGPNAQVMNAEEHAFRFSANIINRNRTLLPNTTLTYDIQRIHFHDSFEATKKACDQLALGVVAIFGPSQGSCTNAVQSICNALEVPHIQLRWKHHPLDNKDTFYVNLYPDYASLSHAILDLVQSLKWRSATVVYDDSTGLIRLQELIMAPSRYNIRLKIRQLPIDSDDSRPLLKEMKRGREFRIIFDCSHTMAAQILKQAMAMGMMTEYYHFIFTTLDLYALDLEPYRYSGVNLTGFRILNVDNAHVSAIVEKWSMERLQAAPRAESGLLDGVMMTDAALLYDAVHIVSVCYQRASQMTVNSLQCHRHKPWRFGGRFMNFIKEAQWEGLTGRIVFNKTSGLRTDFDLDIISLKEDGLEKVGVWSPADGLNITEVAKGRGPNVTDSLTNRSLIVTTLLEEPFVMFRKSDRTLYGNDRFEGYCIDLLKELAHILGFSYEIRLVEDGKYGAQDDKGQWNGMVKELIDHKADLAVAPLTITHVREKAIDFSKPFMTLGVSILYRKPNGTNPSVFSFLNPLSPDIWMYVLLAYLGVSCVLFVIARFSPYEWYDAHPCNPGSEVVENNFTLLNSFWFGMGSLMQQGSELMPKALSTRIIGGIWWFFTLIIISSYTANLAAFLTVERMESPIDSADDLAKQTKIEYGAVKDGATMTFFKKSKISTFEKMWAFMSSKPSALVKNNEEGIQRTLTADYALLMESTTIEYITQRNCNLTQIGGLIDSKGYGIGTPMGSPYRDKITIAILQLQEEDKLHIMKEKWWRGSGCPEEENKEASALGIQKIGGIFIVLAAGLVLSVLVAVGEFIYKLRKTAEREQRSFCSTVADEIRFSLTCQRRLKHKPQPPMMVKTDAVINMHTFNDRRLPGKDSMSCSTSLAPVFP", "assay": "Intracellular Ca2+ imaging assay, HEK293 cells expressing GluK3a", "assay_type": "cell-based", "from_the_text": "For the determination of antagonistic activity of compounds at GluK1, GluK3 and GluA2 receptors, stable HEK293 cell lines expressing rat GluK1b(Q), GluK3a, and GluA2(Q)i were created. A polyclonal stable cell line expressing GluK3a was created as described previously. For the creation of polyclonal stable cell lines expressing GluK1and GluA2 receptors, cDNA encoding blasticidin-S deaminase (blas) enzymes were inserted into the pIRES plasmid vector (Clontech, Mountain View, CA, USA) to create the plasmid vector pRES(blas). Subsequently, cDNA for rat GluK1(Q)1b and the flip isoform of rat GluA2(Q)i were inserted into pRES(blas) to create the expression constructs GluK1b(Q)pIRES(blas) and GluA2i(Q)pIRES(blas), respectively. These were used to transfect GripTite^TM HEK293 cells followed by selecting with 20 µg/mL blasticidin (Invivogen, Toulouse, France) and 0.50 mg/mL geneticin in the presence of 20 µM of the AMPA receptor antagonist CNQX (Tocris, Bristol, UK) until stably transfected GluK1b(Q) and GluA2(Q)i cell lines were obtained. For functional assays, cells were plated into clear-bottomed, black 96-well fluorescence culture plates (Corning, Vordingborg, Denmark), and when >70% confluent, the cells were loaded with 2 μM Fluo 4-AM calcium sensitive dye (Abcam, Cambridge, UK) and used for the imaging of agonist-evoked changes in intracellular Ca^2+ using a FlexStation I plate reader (Molecular Devices, San Jose, CA, USA). […] Changes in dye fluorescence in response to the addition of an agonist solution were then measured at 538 nm using excitation at 485 nm and emission cut-off at 515 nm. Baseline fluorescence was measured for 16 s before the addition of 50 µL agonist solution to each well of the assay plate, and fluorescence was measured for 120 to 160 s after addition of the agonists. Peak change in fluorescence was calculated as the difference between the maximal observed increase in fluorescence and pre-agonist baseline fluorescence. The agonist solutions contained 100 µM KA together with 300 µM of the KAR positive allosteric modulator BPAM344 (Sigma-Aldrich Chemical, St. Louis, MO, USA) for GluK1 and GluK3 experiments or 100 µM glutamate together with 100 µM of the AMPAR positive allosteric modulator cyclothiazide for GluA2 experiments (HelloBio, Bristol, UK). Responses were determined in at least triplicate at each compound concentration."}, "[4]": {"biological_target": "T4, GluK3 (Rattus norvegicus, UniProt P42264)", "T4 construct": "made in house; host or cells: Sf9 insect cells (membranes)", "T4 sequence (P42264 32-919)": "as above", "assay": "Radioligand binding at recombinant homomeric GluK3 in Sf9 membranes", "details": "recombinant rat homomeric receptor, [3H]-kainic acid, mean ± SEM", "protocol": "as §1, §2"}}, "data": [{"smiles": "O=C(Nn1c(=O)c(=O)[nH]c2cc(C#Cc3cnc4cccnn34)ccc21)c1ccccc1", "note": "[Compound 28]", "values": [{"measurement": "melting point", "value": "314 to 315", "unit": "°C"}, {"measurement": "Ki", "setting": "[1]", "value": "~100", "unit": "µM"}, {"measurement": "Ki", "setting": "[2]", "value": "> 100", "unit": "µM"}, {"measurement": "inhibition of agonist-evoked responses at GluK3", "setting": "[3]; 10 µM compound, Ca2+ fluorescence", "value": "full inhibition"}, {"measurement": "IC50", "setting": "[3]; 100 µM KA + 300 µM BPAM344, Ca2+ fluorescence, read-out: IC50, antagonism of agonist-evoked responses at GluK3", "value": 3.6, "unit": "µM"}, {"measurement": "Ki", "setting": "[4]", "value": "0.25 ± 0.01", "unit": "µM"}]}]}
